For data set [1], the system named is promastigote forms of Leishmania infantum. The experiment in a line: In vitro antileishmanial activity in promastigote cultures (MTT), L. infantum. Type of data set: cell-based, Leishmania infantum MHOM/TN/80/IPT1/LEM 235. Particulars: promastigotes, 72 h incubation, mean ± SEM, n = 3-4 (each run in duplicate), read-out: IC50 (μM) L. infantum MON 235. The method, then: (§1) Determination of in Vitro Antileishmanial Activity in Promastigote Cultures.
(§2) The effect of the phospholipids according to the present invention against the promastigote forms of Leishmania donovani and Leishmania infantum was evaluated using an MTT (3-(4,5-dimethylthiazol-2yl)-2,5-diphenyltetrazolium bromide)-based enzymatic method as a marker of cell viability and was compared with that of the ether phospholipid hexadecylphosphocholine (Miltefosine). Thus, promastigotes of Leishmania infantum MHOM/TN/80/IPT1/LEM 235 and Leishmania donovani MHOM/IN/80/DD8/LEM 703, were grown in RPMI 1640 supplemented with 10% FCS, L. glutamine and antibiotics, at 26° C. All new compounds were dissolved in DMSO to a final concentration of 9.625 mM and linear 3-fold dilutions were done in the culture medium. 25 μL of promastigote culture at 5×10^5 cells/mL were cultured in a 96-well flat-bottom plate (Costar 3696), and incubated with 25 μL of different drug concentrations at 26° C. After 72 h, 10 μL of 5 mg/mL MTT in PBS (SIGMA M2128) were added and incubation was continued for 3 h. The reaction was stopped by the addition of 50 μL of 50% isopropanol, 10% SDS under gentle shacking for 30 min. Absorbance was measured at 550 nm with reference at 620 nm in a TRITURUS microplate reader.

The test system of data set [2] is promastigote forms of Leishmania donovani. The experiment in a line: In vitro antileishmanial activity in promastigote cultures (MTT), L. donovani. Type of data set: cell-based, Leishmania donovani MHOM/IN/80/DD8/LEM 703. Particulars: promastigotes, 72 h incubation, mean ± SEM, n = 3-4 (each run in duplicate), read-out: IC50 (μM) L. donovani MON 703. The method, then: as §1, §2

Data set [3] deals with THP1 cells. The data set is described as follows: Assessment of cytotoxicity in THP1 monocyte cells (SYBR-14/PI staining, flow cytometry). Particulars: THP1 monocytes infected with L. donovani and L. infantum; 72 hours; concentrations as low as 50 μM. As for the experimental part:
Thus, we proceeded to assess the cytotoxicity of four inventive compounds as well as miltefosine in the human monocytic cell line THP1.
Assessment of Cytotoxicity in THP1 Monocyte Cells.
As a quantitative measurement of the cell damage after incubation with different concentrations of drugs dual staining with SYBR-14 and PI (Molecular Probes, The Netherlands) was used followed by flow cytometry.
THP1 cell cultures were incubated at 1×10^6 cells/ml with different concentrations of the compounds ranging from 50 to 1.56 μM. After an incubation period of 72 hours approximately 4×10^6 cells were suspended in labeling buffer (10 mM HEPES, 150 mM NaCl, 10% BSA, pH 7.4) and 10 μg/ml PI and 0.1 mg/ml SYBR-14 were added. The cultures were incubated at 37° C. for 30 minutes before analysis by flow cytometry.
Cell samples were analyzed on an Epics Elite model flow cytometer (Coulter, Miami, Fla.). The green fluorescence of SYBR-14 and the red fluorescence of PI were excited at 488 nm. At least 10,000 cells were analyzed per sample and each staining experiment was repeated twice. Data analysis was performed on fluorescence intensities that excluded cell autofluorescence and cell debris.
THP1 monocytes infected with the appropriate Leishmania species were used for the evaluation of the leishmanicidal activity of the compounds against the intracellular amastigote stages of the parasite.
A general note: In flow cytometry, cells or beads pass a laser one at a time.

The subject of data set [4] is cutaneous leishmaniasis. The note with it: phase I study; 100-150 mg for 3 weeks; cited from earlier work.
Data set [5] concerns visceral leishmaniasis. Particulars: cited from earlier work.

These results are taken from patent publication US8097752B2, “Antiprotozoal ring-substituted phospholipids” (priority 2002, dated 2012).

Usually IC50 stands for the concentration that inhibits the measured activity by half.

Counter-ions that a name gives are not always drawn. Like-named read-outs stand apart in the source and are kept apart here.

`C[N+](C)(C)CCOP(=O)([O-])OCCCCCCCCCCC=C1CCCCC1` [Example 13, 1-{2-[(11-Cyclohexylideneundecyloxy)hydroxyphosphinyloxy]ethyl}-N,N,N-trimethylammonium inner salt]: the values for the IC50 in data set [1] and in data set [2] were 5.2 ± 1.5 µM and 2.4 ± 0.6 µM, respectively. Besides, the “cytotoxic effect on THP1 cells (percentage of live THP1 cells, FIG. 1)” value in data set [3] was “not observed”.
With `C[N+](C)(C)CCOP(=O)([O-])OCCCCCCCCCCC=C1C2CC3CC(C2)CC1C3` [Example 19, 1-{2-[(11-Adamantylideneundecyloxy)hydroxyphosphinyloxy]ethyl}-N,N,N-trimethylammonium inner salt], the IC50 in data set [1] is 6.75 ± 2.4 µM; in data set [2], 3.16 ± 0.63 µM. In addition, in data set [3], the “cytotoxic effect on THP1 cells (percentage of live THP1 cells, FIG. 1)” value is “not observed”.
As to `CCCCCCCCCCCCCCCCOP(=O)([O-])OCC[N+](C)(C)C` [Miltefosine, hexadecylphosphocholine], the results for the IC50 in data set [1] (Leishmania infantum) and in data set [2] (Leishmania donovani) were 22.6 ± 3.6 µM and 23.7 ± 4.07 µM, respectively. Also, the cure rate in data set [4] is given as 94%. Moreover, the “effectiveness in treating mice infected with visceral leishmaniasis” value in data set [5] (mice) was “highly effective”. The “effectiveness of oral treatment relative to subcutaneous administration of pentostam” value in data set [5] (oral miltefosine vs subcutaneous pentostam, mice infected with visceral leishmaniasis) is 600 fold.
